Results reported in article PMC5420329 (Journal of medicinal chemistry, 2015).
pIC50: −log10 of the molar value. Like-named read-outs stand apart in the source and are kept apart here.

How the values were obtained:
[1] = system: TGFα; test: Inhibition of TGFα shedding in A549 cells; type: cell-based; settings: for inhibition at 40 µM: Homo sapiens, A549, read-out: TGFα shedding inhibition
[2] = system: CXCL16; test: CXCL16 shedding inhibition in HTSMC; type: cell-based, human; settings: for CXCL16 shedding inhibition: HTSMC, 10 μM; for inhibition at 10 µM: Homo sapiens, read-out: CXCL16 shedding inhibition
[3] = system: Heregulin; test: Inhibition of heregulin shedding in A549 cells; type: cell-based; settings: for inhibition at 40 µM: Homo sapiens, A549, read-out: Heregulin shedding inhibition
[4] = system: A549 cells; test: Synergy studies, A549 viability assay
[5] = system: HEPG2 cells; test: CellTiter Glo cell viability assay; type: cell-based; settings: 72 h, up to 33 μM
[6] = system: wtPTK7; test: Inhibition of PTK7 shedding in SW480 cells; type: cell-based
[7] = system: Notch; settings: SKMEL-28, 25 μM; ref Personal communication from Dr. Kaushik (Kansas University Medical Center); cited from earlier work
[8] = system: A549 cells; test: CellTiter Glo cell viability assay; type: cell-based; settings: 72 h, up to 33 μM
[9] = system: HT1080 cells; test: Transwell invasion assay; type: cell-based, human; settings: Matrigel
[10] = system: MDA-MB-231 cells; test: CellTiter Glo cell viability assay; type: cell-based; settings: 72 h, up to 33 μM
[11] = target: ADAM10 (Homo sapiens, UniProt O14672); test: ADAM10 glycosylated substrate assay; type: biochemical
Chain of ADAM10 (O14672 214-748): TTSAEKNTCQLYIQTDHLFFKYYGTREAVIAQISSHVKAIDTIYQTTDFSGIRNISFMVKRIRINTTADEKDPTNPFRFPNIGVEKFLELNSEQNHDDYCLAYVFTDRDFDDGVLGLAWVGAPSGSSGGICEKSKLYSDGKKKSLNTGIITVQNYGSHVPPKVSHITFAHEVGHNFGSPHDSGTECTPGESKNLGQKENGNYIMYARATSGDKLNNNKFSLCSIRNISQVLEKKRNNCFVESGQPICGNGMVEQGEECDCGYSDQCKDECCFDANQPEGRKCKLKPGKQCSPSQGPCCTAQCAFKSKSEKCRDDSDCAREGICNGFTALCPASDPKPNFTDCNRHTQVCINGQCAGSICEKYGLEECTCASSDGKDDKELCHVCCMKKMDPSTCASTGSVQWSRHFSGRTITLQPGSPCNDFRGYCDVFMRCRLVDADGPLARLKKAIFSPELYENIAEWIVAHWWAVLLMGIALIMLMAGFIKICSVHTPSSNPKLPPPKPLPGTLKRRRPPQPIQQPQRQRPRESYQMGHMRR

[12] = system: betacellulin; test: Inhibition of betacellulin shedding in A549 cells; type: cell-based; settings: for inhibition at 40 µM: Homo sapiens, A549, read-out: BTC (betacellulin) shedding inhibition
[13] = system: L622D-PTK7; test: Inhibition of PTK7 shedding in HT1080-L622D cells; type: cell-based, human
[14] = system: zinc metalloproteinases; test: Selectivity testing against extended panel of zinc metalloproteinases; type: biochemical; settings: ADAM17 versus five other metzincins
[15] = system: EGFR ligand (heregulin, TGFα, HB-EGF, amphiregulin, and EGF); settings: cited from earlier work
[16] = system: PTK7; settings: cited from earlier work
[17] = system: HT1080 cells; settings: cited from earlier work
[18] = target: MMP8 (Homo sapiens, UniProt P22894); test: MMP assay; type: biochemical
Chain of MMP8 (P22894 101-467, species assumed): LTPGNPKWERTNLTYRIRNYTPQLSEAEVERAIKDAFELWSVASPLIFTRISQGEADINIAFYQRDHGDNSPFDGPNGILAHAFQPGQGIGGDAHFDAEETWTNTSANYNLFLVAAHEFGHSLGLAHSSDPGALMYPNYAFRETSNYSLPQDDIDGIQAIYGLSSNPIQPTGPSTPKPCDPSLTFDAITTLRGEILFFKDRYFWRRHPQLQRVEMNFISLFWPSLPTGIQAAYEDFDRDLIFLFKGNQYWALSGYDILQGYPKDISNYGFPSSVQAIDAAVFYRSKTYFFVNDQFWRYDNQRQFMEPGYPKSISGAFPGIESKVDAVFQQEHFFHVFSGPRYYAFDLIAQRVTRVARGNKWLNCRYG

[19] = target: MMP14 (Homo sapiens, UniProt P50281); test: MMP assay; type: biochemical
[20] = target: ADAM17 (Homo sapiens, UniProt P78536); test: ADAM17 glycosylated substrate assay; type: biochemical
Chain of ADAM17 (P78536 215-824): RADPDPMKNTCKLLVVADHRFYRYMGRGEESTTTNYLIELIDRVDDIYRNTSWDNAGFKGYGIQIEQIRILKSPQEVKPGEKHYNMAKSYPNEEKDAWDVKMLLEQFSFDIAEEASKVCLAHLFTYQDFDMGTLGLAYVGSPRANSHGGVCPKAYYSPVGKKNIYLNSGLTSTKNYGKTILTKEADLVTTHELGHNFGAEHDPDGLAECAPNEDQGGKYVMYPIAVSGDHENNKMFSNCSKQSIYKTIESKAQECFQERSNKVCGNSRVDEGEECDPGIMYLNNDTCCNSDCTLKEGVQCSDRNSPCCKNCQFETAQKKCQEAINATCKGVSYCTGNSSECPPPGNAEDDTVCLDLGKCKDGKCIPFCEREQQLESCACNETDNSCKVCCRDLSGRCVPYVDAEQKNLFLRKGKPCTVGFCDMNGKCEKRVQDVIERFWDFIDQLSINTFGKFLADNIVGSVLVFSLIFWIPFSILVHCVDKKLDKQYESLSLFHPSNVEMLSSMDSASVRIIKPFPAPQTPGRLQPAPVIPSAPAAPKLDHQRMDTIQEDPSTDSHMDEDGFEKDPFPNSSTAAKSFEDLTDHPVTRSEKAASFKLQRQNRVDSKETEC

[21] = system: TNFα; test: Inhibition of TNFα shedding in THP-1 cells; type: cell-based; settings: Homo sapiens, THP-1, read-out: TNFα shedding inhibition
[22] = target: MMP2 (Homo sapiens, UniProt P08253); test: MMP assay; type: biochemical
Chain of MMP2 (P08253 110-660, species assumed): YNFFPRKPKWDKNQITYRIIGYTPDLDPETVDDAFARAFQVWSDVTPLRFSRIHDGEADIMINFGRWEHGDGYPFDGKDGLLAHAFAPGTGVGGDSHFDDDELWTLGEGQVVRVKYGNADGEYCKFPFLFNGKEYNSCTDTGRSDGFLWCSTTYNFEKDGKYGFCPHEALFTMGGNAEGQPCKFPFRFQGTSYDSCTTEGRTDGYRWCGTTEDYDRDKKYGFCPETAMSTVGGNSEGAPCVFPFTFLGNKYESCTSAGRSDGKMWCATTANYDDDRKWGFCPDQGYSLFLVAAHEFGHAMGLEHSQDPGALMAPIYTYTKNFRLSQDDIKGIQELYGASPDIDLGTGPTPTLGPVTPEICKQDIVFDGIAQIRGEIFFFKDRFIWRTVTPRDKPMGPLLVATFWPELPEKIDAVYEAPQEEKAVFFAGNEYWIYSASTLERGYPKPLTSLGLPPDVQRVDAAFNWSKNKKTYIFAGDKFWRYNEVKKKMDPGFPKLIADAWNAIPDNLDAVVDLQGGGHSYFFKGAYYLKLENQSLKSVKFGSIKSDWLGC

[23] = target: MMP9 (Homo sapiens, UniProt P14780); test: MMP assay; type: biochemical
Chain of MMP9 (P14780 94-707, species assumed): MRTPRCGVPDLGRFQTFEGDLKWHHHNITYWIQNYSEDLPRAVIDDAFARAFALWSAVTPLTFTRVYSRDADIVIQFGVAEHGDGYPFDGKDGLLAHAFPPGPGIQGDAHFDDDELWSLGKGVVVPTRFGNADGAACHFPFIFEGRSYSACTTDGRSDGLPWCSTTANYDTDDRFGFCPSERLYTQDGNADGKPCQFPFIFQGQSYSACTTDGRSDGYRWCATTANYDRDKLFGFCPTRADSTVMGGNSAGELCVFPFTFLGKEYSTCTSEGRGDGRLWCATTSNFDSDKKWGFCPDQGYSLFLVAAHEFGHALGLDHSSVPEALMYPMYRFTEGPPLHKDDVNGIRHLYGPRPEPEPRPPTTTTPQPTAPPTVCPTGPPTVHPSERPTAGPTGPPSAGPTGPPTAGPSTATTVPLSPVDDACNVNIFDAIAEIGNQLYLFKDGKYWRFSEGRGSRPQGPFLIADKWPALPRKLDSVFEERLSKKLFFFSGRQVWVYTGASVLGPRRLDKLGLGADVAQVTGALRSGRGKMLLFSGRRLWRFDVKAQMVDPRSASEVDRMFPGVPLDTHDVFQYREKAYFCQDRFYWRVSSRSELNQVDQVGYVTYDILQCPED

SMILES	inhibition at 40 µM [1] [%]	CXCL16 shedding inhibition [2]	inhibition at 10 µM [2] [%]	inhibition at 40 µM [3] [%]	viability of HEPG2 cells [5]	viability of MDA-MB-231 cells [10]	inhibition at 40 µM [12] [%]	selectivity profile [14]	further results
O=C1NC[C@@H](Cc2ccc(O)cc2)N(C[C@@H]2CCCN2C[C@@H](Cc2ccc3ccccc3c2)N2C[C@H](Cc3ccc(O)cc3)N(CCC34CC5CC(CC(C5)C3)C4)C(=O)C2=O)C1=O [Compound 17, (5R)-4-(2-((1R,3R)-Adamantan-1-yl)ethyl)-5-(4-hydroxybenzyl)-1-((2R)-1-(2-(((R)-6-(4-hydroxybenzyl)-2,3-dioxopiperazin-1-yl)-methyl)pyrrolidin-1-yl)-3-(naphthalen-2-yl)propan-2-yl)piperazine-2,3-dione]	0	did not inhibit	0	100	did not inhibit viability	did not inhibit viability	0		shedding of TGFα ([1]; A549, up to 100 μM): did not affect shedding; Heregulin shedding inhibition ([3]; A549, PMA, 40 μM): completely inhibited shedding; potentiation of gefitinib activity against A549 cells ([4]; 40 μM compound 17): potentiated gefitinib activity; potentiation of doxorubicin activity ([4]; A549, 40 μM compound 17): did not potentiate the activity; potentiation of etoposide activity ([4]; A549, 40 μM compound 17): did not potentiate the activity; PTK7 shedding inhibition ([6]; SW480 (wtPTK7), PMA, 25–100 μM): 0–82%; shedding of wtPTK-7 ([6]; SW480, PMA stimulated, 50 and 100 μM): inhibited shedding; Notch shedding inhibition [7]: 0%; viability of A549 cells [8]: no intrinsic activity; invasion of HT1080 cells [9]: dose-dependent inhibition of invasion; ADAM10 IC50 ([11]; Table 4 selectivity panel): did not inhibit; PTK7 shedding inhibition ([13]; HT1080 (L622D-PTK7), PMA, 25–100 μM): 25–50%; shedding of L622D-PTK7 ([13]; HT1080-L622D, PMA stimulated, 50 and 100 μM): inhibited shedding
O=C1NC[C@H](Cc2ccccc2)N(C[C@@H]2CCCN2C[C@H](Cc2ccccc2)N2C[C@H](Cc3ccc(O)cc3)N(CCC34CC5CC(CC(C5)C3)C4)C(=O)C2=O)C1=O [Compound 20, (S)-4-(2-(Adamantan-1yl)ethyl)-1-((S)-1-((S)-2-(((S)-6-benzyl-2,3-dioxopiperazin-1-yl)methyl)pyrrolidin-1-yl)-3-phenylpropan-2-yl)-5-(4-hydroxybenzyl)piperazine-2,3-dione]	0	did not inhibit	0	0	did not inhibit viability	did not inhibit viability	0	inhibiting only ADAM17	
COC(=O)N1CC2(CC2)C[C@H](C(=O)NO)[C@H]1C(=O)N1CC=C(c2ccccc2)CC1 [INCB3619]									heregulin shedding in A549 cells [15]: abrogation of heregulin shedding; shedding of PTK7 [16]: able to inhibit; invasion of HT1080 cells [17]: able to inhibit
O=C1NC[C@H](Cc2ccccc2)N(C[C@@H]2CCCN2C[C@@H](CC2CCCCC2)N2C[C@H](Cc3ccc(O)cc3)N(CCc3ccccc3)C(=O)C2=O)C1=O [Compound 18, (S)-1((R)-1((S)-2-(((S)-6-Benzyl-2,3-dioxopiperazin-1-yl)methyl)-pyrrolidin-1-yl)-3-cyclohexylpropan-2-yl)-5-(4-hydroxybenzyl)-4-phenethylpiperazine-2,3-dione]	0	did not inhibit	0	0	did not inhibit viability	did not inhibit viability	0		
CNC(=O)[C@@H](NC(=O)[C@H](CC(C)C)[C@H](O)C(=O)NO)C(C)(C)C [Marimastat, (2S,3R)-N4-[(1S)-2,2-dimethyl-1-[(methylamino)carbonyl]propyl]-N1,2-dihydroxy-3-(2-methylpropyl)butanediamide, reference compound]									soluble TGFα in supernatant ([1]; A549, PMA, 10 μM): decreased soluble TGFα in the supernatant of A549 cells to the level of non-PMA-treated control; shedding of EGFR ligands (heregulin, TGFα, HB-EGF, amphiregulin, EGF) ([15]; A549 cells): inhibited shedding of each tested EGFR ligand; betacellulin shedding inhibition ([12]; A549, 10 μM): almost complete inhibition
O=C1NC[C@H](Cc2ccccc2)N(C[C@@H]2CCCN2C[C@@H](CC2CCCCC2)N2C[C@H](Cc3ccccc3)N(CCc3ccccc3)C(=O)C2=O)C1=O [Compound 21, (S)-5-Benzyl-1-((R)-1-((S)-2-(((S)-6-benzyl-2,3-dioxopiperazin-1-yl)methyl)pyrrolidin-1-yl)-3-cyclohexylpropan-2-yl)-4-phenethylpiperazine-2,3-dione]	0						0	inhibiting only ADAM17	pIC50 [18]: < 4.00; pIC50 [19]: < 4.00; pIC50 [20]: 5.07; inhibition at 100 µM ([20]; read-out: ADAM17 %inhibition at 100 μM): 100%; inhibition at 25 µM [21]: 0%; pIC50 [22]: < 4.00; pIC50 [23]: < 4.00; pIC50 [11]: < 4.00
CCCC[C@H]1CN([C@@H](Cc2ccc(O)cc2)CN2CCC[C@H]2CN2C(=O)C(=O)NC[C@H]2Cc2ccc3ccccc3c2)C(=O)C(=O)N1CCC12CC3CC(CC(C3)C1)C2 [Compound 16, (S)-4-(2-(Adamantan-1-yl)ethyl)-5-butyl-1-((S)-1-(4-hydroxyphenyl)-3-((S)-2-(((R)-6-(naphthalen-2-ylmethyl)-2,3-dioxopiperazin-1-yl)methyl)pyrrolidin-1-yl)propan-2-yl)piperazine-2,3-dione]	0	did not inhibit	0	0			0	inhibiting only ADAM17	
